# Results: patent publication US20050282707A1, “Pyridinylisoxazoles and their use as herbicides” (Bayer CropScience GmbH, priority 2004, published 2005)
# Key:
# Format in all cases: in vivo
# Amaranthus retroflexus = test: Pre-emergence herbicidal action; details: 320 g of active ingredient or less per hectare, greenhouse, visual scoring after 3 to 4 weeks vs untreated controls
# Excerpt: (§1) Seeds of mono- and dicotyledonous weed plants are placed in sandy loam in cardboard pots and covered with soil. The compounds according to the invention, formulated as wettable powders or emulsifiable concentrates, are then applied, in the form of an aqueous suspension or emulsion, at a dosage of 320 g of active ingredient or less per hectare (converted), onto the surface of the covering earth, at an application rate of 600 to 800 l of water per ha (converted). Following treatment, the pots are placed in the greenhouse and maintained under good growth conditions for the weed plants. The visual scoring of the plant damage or emergence damage is made when the test plants have emerged, after an experimental period of 3 to 4 weeks, in comparison to untreated controls.
# Setaria viridis = test: Pre-emergence herbicidal action; details: 320 g of active ingredient or less per hectare, greenhouse, visual scoring after 3 to 4 weeks vs untreated controls
# Excerpt: as §1
# Sinapis arvensis = test: Pre-emergence herbicidal action; details: 320 g of active ingredient or less per hectare, greenhouse, visual scoring after 3 to 4 weeks vs untreated controls
# Excerpt: as §1
# maize plants = test: Crop plant tolerance; details: application rate of 320 g, plants with two to three true leaves, greenhouse, visual scoring four to five weeks after application
# Excerpt: as §1
# (§2) In further greenhouse experiments, seeds of crop plants and of monocotyledonous and dicotyledonous weed plants are placed in sandy loam, covered with soil and placed in the greenhouse until the plants have developed two to three true leaves. Then they are treated with the compounds of the formula (I) according to the invention, and compared with those disclosed in the prior art, as described above in section 1. Four to five weeks after the application and after having been left to stand in the greenhouse, visual scoring is performed. In this test, for example, the compounds of Nos: 1.44, 2.39 and 3.44, at an application rate of 320 g, lead to no damage to maize and wheat plants.
# wheat plants = test: Crop plant tolerance; details: application rate of 320 g, plants with two to three true leaves, greenhouse, visual scoring four to five weeks after application
# Excerpt: as §1, §2
compound,measurement,setting,value
Cc1nc(Cl)ccc1-c1oncc1C(=O)C1CC1 [2.39],activity against Amaranthus retroflexus,Amaranthus retroflexus,100%
same,activity against Setaria viridis,Setaria viridis,100%
same,activity against Sinapis arvensis,Sinapis arvensis,100%
same,damage to maize plants,maize plants,no damage
same,damage to wheat plants,wheat plants,no damage
CSc1ccc(-c2oncc2C(=O)C2CC2)c(C)n1 [2.14],activity against Amaranthus retroflexus,Amaranthus retroflexus,100%
same,activity against Setaria viridis,Setaria viridis,100%
same,activity against Sinapis arvensis,Sinapis arvensis,100%
CCS(=O)(=O)c1ccc(C(=O)c2cnoc2C2CC2)c(C)n1 [1.19],activity against Amaranthus retroflexus,Amaranthus retroflexus,100%
same,activity against Setaria viridis,Setaria viridis,100%
same,activity against Sinapis arvensis,Sinapis arvensis,100%
Cc1nc(C(F)(F)F)ccc1C(=O)C(C#N)C(=O)C1CC1 (stereo not shown) [3.44],activity against Amaranthus retroflexus,Amaranthus retroflexus,100%
same,activity against Setaria viridis,Setaria viridis,100%
same,activity against Sinapis arvensis,Sinapis arvensis,100%
same,damage to maize plants,maize plants,no damage
same,damage to wheat plants,wheat plants,no damage
CCS(=O)(=O)c1ccc(-c2oncc2C(=O)C2CC2)c(C)n1 [2.19],activity against Amaranthus retroflexus,Amaranthus retroflexus,100%
same,activity against Setaria viridis,Setaria viridis,100%
same,activity against Sinapis arvensis,Sinapis arvensis,100%
Cc1nc(Cl)ccc1C(=O)c1cnoc1C1CC1 [1.39],activity against Amaranthus retroflexus,Amaranthus retroflexus,100%
same,activity against Setaria viridis,Setaria viridis,100%
same,activity against Sinapis arvensis,Sinapis arvensis,100%
